From PMC7925398, “Exploring the Therapeutic Potenital of the Leaderless Enterocins K1 and EJ97 in the Treatment of Vancomycin-Resistant Enterococcal Infection” (Frontiers in Microbiology, 2021)
≈ marks a conversion by molar mass, not a printed value. Read-outs that look alike come from different tables or passages of the source. Where a SMILES comes first, the peptide text is derived from it.

Legend:
[1] = Antibacterial effect (MIC) after incubation in blood, plasma or saline; assay type: cell-based; details: for MIC in blood: 1 mg/ml added to whole human blood (EDTA)
Experimental: To test whether the antibacterial effect of the bacteriocins was reduced in blood, an assay was performed where whole blood was collected from two healthy volunteers, with EDTA as an anticoagulant. Directly after blood sampling each bacteriocin was added to a concentration of 1mg/ml. […] Samples were collected at specific time points and bacteriocin activity was determined using the standard MIC assay as previously described ([Holo et al., 1991]). The experiment was repeated three times and the error bars represent the standard deviation.
The presented MIC values are the average of three experiments. Each bacteriocin was added to whole human blood to reach a concentration of 1 mg/ml. […] RT is short for room temperature.

[2] = tested on: bacteriocin-resistant enterococcal cells (eep-mutants); details: colonies from inhibition zones of spot-on-lawn assay; 'mostly above'; cross-resistant
Experimental: Bacteriocin resistant mutants were obtained by a spot-on-lawn assay, where liquid bacteriocin was spotted on a lawn of indicator cells, using 10μl of bacteriocin in concentrations 0.5–5 mg/ml. The plates were incubated at 30°C overnight and resistant colonies were selected from the inhibition zones and re-streaked on new plates for isolated colonies. Pure cultures were made and stored in 15% glycerol at −80°C. The eep gene was PCR amplified and sequenced with specific primers: eep in E. faecium was amplified using primers Eepf4F + Eepf4R and sequenced using primers Eepf1R - Eepf6R and Eepf1F - Eepf6F. eep in E. faecalis was amplified using primers Eepfa1R + Eepfa3F and sequenced using primers Eepfa1R - Eepfa3R, Eepf1R - Eepf3R and Eepfa1F - Eepfa3F.
The samples were sent to GATC Biotech, Germany for sequencing. MIC of the resistant mutants was scored using a microtiter assay as previously described ([Holo et al., 1991]).

E. faecium = details: three parallels
Experimental: Unless otherwise specified the bacterial strains were grown in brain heart infusion (BHI) medium (Oxoid) at 37°C under aerobic conditions without shaking.
The peptides were stored at −20°C until use. The amino acid sequences of the bacteriocins are […] RPVA and […] […] Bacteriocin activity was determined using a microtiter assay as previously described ([Holo et al., 1991]).

human erythrocytes = experiment: Haemolysis assay
Experimental: To assess the haemolytic effect whole blood was drawn from two healthy human volunteers, pooled and distributed in 1 ml aliquots. The aliquots were spun down at 1,000 × g for 5 min at 4°C to separate erythrocytes from plasma. The erythrocytes were washed three times with saline (0.9% NaCl) and resuspended in 100 μl saline. […] SDS in saline was added as a control, since bacteriocins were solved in saline. The samples were incubated at 37°C for 1 h and then spun down again to remove intact erythrocytes. The supernatant was measured for absorbance at 540 nm in order to measure degree of haemolysis. […] The experiment was repeated three times to allow for statistical analysis.
Whole human blood was mixed with each bacteriocin in saline to a final concentration of 1, 0.1, and 0.01 mg/ml. The samples were incubated at 37°C before the erythrocytes were spun down and the supernatant was read at OD540.

[3] = tested on: E. faecium LMGT 20705 and E. faecium 42 ACA-D6 0237; experiment: Effect of autoclaving on antibacterial activity, E. faecium; assay type: cell-based, Enterococcus faecium; details: in MilliQ water with 0.1% TFA, standard autoclaving; MIC against E. faecium LMGT 20705 and 42 ACA-D6 0237
From the text: A pre-requisite for intravenous administration is complete sterility of the compound ([Paese et al., 2017]). The simplest manner to achieve this is through autoclaving. However, this can cause degradation of the compound and therefore be detrimental to the antibacterial effect. Also, if the compound is degraded into unknown constituents this may cause unintended interactions. Therefore, we exposed the bacteriocins to a standard autoclaving procedure.
Each bacteriocin was solved in MilliQ water with 0.1% TFA and then autoclaved. […] Strains: 20705 is short for E. faecium LMGT 20705; 0237 for E. faecium 42 ACA-D6 0237; D6 for E. faecalis D6; and MMH594 for E. faecalis MMH594.

[4] = tested on: E. faecium wildtype and eep-mutant strains; experiment: Lysozyme tolerance MIC assay; assay type: cell-based, Enterococcus faecium
Experimental: To test for lysozyme tolerance the wild type and mutant strains were grown over night and subjected to a standard MIC assay as previously described with twofold dilutions of lysozyme ([Holo et al., 1991]). In addition, a spot-on-lawn assay was performed with 10 μl 250 mg/ml lysozyme spotted on a lawn of cells.

[5] = starting value (time not given), average of three experiments

For CC1(C)S[C@@H]2[C@H](NC(=O)[C@H](N)c3ccccc3)C(=O)N2[C@H]1C(=O)O [Ampicillin, reference compound], which MIC in blood [1, 5] is on record?
The MIC in blood was 1.56 µg/mL (≈ 4.46 µM).

And the “Loss of activity after 48 h incubation” value ([1]; 48 h incubation at 37°C in blood and similar conditions)?
The value was “fourfold”.

Which results are given for CC[C@H](C)[C@H](NC(=O)[C@H](CCC(=O)O)NC(=O)[C@H](Cc1ccc(O)cc1)NC(=O)[C@H](CCC(N)=O)NC(=O)[C@@H](NC(=O)[C@H](CC(C)C)NC(=O)[C@H](CCCCN)NC(=O)[C@H](CCCCN)NC(=O)[C@@H](NC(=O)[C@@H](NC(=O)[C@@H](NC(=O)CNC(=O)[C@@H](NC(=O)[C@@H]1CCCN1C(=O)[C@H](CC(N)=O)NC(=O)[C@H](Cc1ccccc1)NC(=O)[C@H](CCCCN)NC(=O)[C@H](Cc1ccccc1)NC(=O)[C@H](CCCCN)NC(=O)[C@@H](N)CCSC)[C@@H](C)O)[C@@H](C)O)[C@@H](C)CC)C(C)C)[C@@H](C)O)C(=O)N[C@@H](C)C(=O)N[C@@H](Cc1c[nH]c2ccccc12)C(=O)N[C@@H](Cc1ccccc1)C(=O)N[C@@H](CCCCN)C(=O)N[C@@H](CC(N)=O)C(=O)N[C@@H](CCCCN)C(=O)N[C@@H](Cc1c[nH]cn1)C(=O)NCC(=O)N[C@@H](Cc1ccc(O)cc1)C(=O)N[C@@H](Cc1ccc(O)cc1)C(=O)N1CCC[C@H]1C(=O)N[C@@H](Cc1c[nH]c2ccccc12)C(=O)N[C@@H](CCC(=O)O)C(=O)N[C@H](C(=O)N1CCC[C@H]1C(=O)N[C@@H](CCCNC(=N)N)C(=O)N[C@@H](CS)C(=O)O)[C@@H](C)CC [EntK1, enterocin K1] (H-MKFKFNPTGTIVKKLTQYEIAWFKNKHGYYPWEIPRC-OH; N-terminus and C-terminus assumed)?
MIC against cells from resistant colonies [2]: above 25 μg/ml; MIC of EntK1 (E. faecium; strain E1469 (N, nosocomial), MIC = at least 50% growth inhibition): 0.39 µg/mL; MIC of EntK1 (E. faecium; strain E3160 (N, nosocomial), MIC = at least 50% growth inhibition): 0.39 µg/mL; MIC of EntK1 (E. faecium; strain E3449 (N, nosocomial), MIC = at least 50% growth inhibition): 0.39 µg/mL; MIC of EntK1 (E. faecium; strain E6072 (N, nosocomial), MIC = at least 50% growth inhibition): 0.19 µg/mL; MIC of EntK1 (E. faecium; strain E6094 (N, nosocomial), MIC = at least 50% growth inhibition): 0.39 µg/mL; MIC of EntK1 (E. faecium; strain E6856 (N, nosocomial), MIC = at least 50% growth inhibition): 0.39 µg/mL; MIC of EntK1 (E. faecium; strain E7195 (N, nosocomial), MIC = at least 50% growth inhibition): 0.39 µg/mL; MIC of EntK1 (E. faecium; strain E7422 (N, nosocomial), MIC = at least 50% growth inhibition): 0.19 µg/mL; MIC of EntK1 (E. faecium; strain E7660 (N, nosocomial), MIC = at least 50% growth inhibition): 0.39 µg/mL; MIC of EntK1 (E. faecium; strain E8150 (N, nosocomial), MIC = at least 50% growth inhibition): 0.78 µg/mL; MIC of EntK1 (E. faecium; strain LMGT 20705 (L, laboratory), MIC = at least 50% growth inhibition): <0.048 µg/mL; MIC of EntK1 (E. faecium; strain P21 (L, laboratory), MIC = minimum concentration inhibiting growth by at least 50% vs control, 200 μl culture): <0.048 µg/mL; Visual haemolysis (redness of supernatant compared to saline) (human erythrocytes; 1 mg/ml in saline, 37°C): did not cause haemolysis; Haemolysis of erythrocytes (human erythrocytes; 0.01, 0.1 and 1 mg/ml in saline, washed human erythrocytes (two volunteers, pooled), 37°C, 1 h, supernatant absorbance 540 nm, repeated three times): non-haemolytic; MIC in blood [1, 5]: 0.78 µg/mL (≈ 0.171 µM); MIC in saline ([1]; 1 mg/ml in saline, first value (time not given), indicator strain not stated, average of three experiments): 0.19 µg/mL (≈ 0.0416 µM); MIC in plasma ([1]; added to human plasma, starting value (time not given), average of three experiments): 0.78 µg/mL (≈ 0.171 µM); MIC in plasma after 8 h ([1]; human plasma, 8 h incubation at 37°C, average of three experiments): 0.78 µg/mL (≈ 0.171 µM); MIC in plasma at 48 h ([1]; human plasma, 48 h incubation at 37°C, average of three experiments): 1.56 µg/mL (≈ 0.342 µM); MIC in saline after 8 h ([1]; saline, 8 h incubation at 37°C, average of three experiments): stayed at the same level; MIC in saline at 48 h ([1]; saline, 48 h incubation at 37°C, average of three experiments): 0.39 µg/mL (≈ 0.0854 µM); MIC ratio blood to plasma ([1]; same at all time points, 37°C): 2 ×; MIC ratio plasma to saline ([1]; same at all time points, 37°C): 2 ×; MIC in blood after 8 h ([1]; whole human blood (EDTA), 1 mg/ml, 8 h incubation at 37°C, average of three experiments): approximately 1.56 μg/ml; MIC in blood at 48 h ([1]; whole human blood (EDTA), 1 mg/ml, 48 h incubation at 37°C, average of three experiments): 3.125 µg/mL (≈ 0.685 µM); MIC in blood compared to saline (fold higher) ([1]; whole human blood vs saline, 37°C): 4 ×; Effect of autoclaving on MIC [3]: did not affect

With CCCCCCCCCCCCOS(=O)(=O)[O-].[Na+] [SDS, reference compound] as the compound, how does the “Visual haemolysis (redness of supernatant)” value (human erythrocytes) read?
The value was “complete haemolysis”.

What does the source list for Lysozyme?
Lysozyme MIC ([4]; E. faecium 7422c.522del (M, eep-mutant)): 1950 µg/mL; Lysozyme MIC ([4]; E. faecium 7422c.C64A (M, eep-mutant)): 1950 µg/mL; Lysozyme MIC ([4]; E. faecium E7422 (WT)): 15630 µg/mL; Lysozyme MIC ([4]; E. faecium P21 (WT), twofold dilutions of lysozyme): 15630 µg/mL; Lysozyme MIC ([4]; E. faecium P21c.G716A (M, eep-mutant)): 980 µg/mL; Lysozyme MIC ([4]; E. faecium P21c.ins7 (M, eep-mutant)): 980 µg/mL; Lysozyme MIC ([4]; E. faecium P21c.ins23 (M, eep-mutant)): 980 µg/mL; Lysozyme MIC ([4]; E. faecium P21c.ins43 (M, eep-mutant)): 980 µg/mL; Lysozyme MIC, wildtype strains ([4]; wildtype strains P21 and E7422): 15630 µg/mL
